Test results published in patent publication US6511997B1, “Aminopyrazole derivatives” (Teikoku Hormone Mfg. Co., Ltd., priority 1998, dated 2003).

| melting point [°C] | SMILES |
| --- | --- |
| 239.9 to 242.5 | Cn1nc(-c2ccc(F)cc2)c(-c2ccncc2)c1NC(=O)Cc1c(F)cccc1F [Example 46, 5-(2,6-Difluorophenylacetylamino)-3-(4-fluorophenyl)-1-methyl-4-(4-pyridyl)pyrazole] |
| 208.5 to 210.2 | Cn1nc(-c2ccc(F)cc2)c(-c2ccncc2)c1NC(=O)Cc1cc(F)cc(F)c1 [Example 48, 5-(3,5-Difluorophenylacetylamino)-3-(4-fluorophenyl)-1-methyl-4-(4-pyridyl)pyrazole] |
| 181.3 to 182.5 | Cn1nc(-c2ccc(F)cc2)c(-c2ccncc2)c1NC(=O)Cc1cccc(F)c1F [Example 49, 5-(2,3-Difluorophenylacetylamno)-3-(4-fluorophenyl)-1-methyl-4-(4-pyridyl)pyrazole] |
| 211.2 to 212.4 | Cc1cc(C)cc(CC(=O)Nc2c(-c3ccncc3)c(-c3ccc(F)cc3)nn2C)c1 [Example 50, 5-(3,5-Dimethylphenylacetylamino)-3-(4-fluorophenyl)-1-methyl-4-(4-pyridyl)pyrazole] |
| 179.9 to 185.1 | Cc1ccc(C)c(CC(=O)Nc2c(-c3ccncc3)c(-c3ccc(F)cc3)nn2C)c1 [Example 51, 5-(2,5-Dimethylphenylacetylanino)-3-(4-fluorophenyl)-1-methyl-4-(4-pyridyl)pyrazole] |
| 179.3 to 182.2 | COc1ccc(CC(=O)Nc2c(-c3ccncc3)c(-c3ccc(F)cc3)nn2C)c(OC)c1 [Example 52, 5-(2,4-Dimethoxyphenylacetylamino)-3-(4-fluorophenyl)-1-methyl-4-(4-pyridyl)pyrazole] |
| 185.4 to 193.4 | COc1cccc(CC(=O)Nc2c(-c3ccncc3)c(-c3ccc(F)cc3)nn2C)c1OC [Example 53, 5-(2,3-Dimethoxyphenylacetylamino)-3-(4-fluorophenyl)-1-methyl-4-(4-pyridyl)pyrazole] |
| 178.1 to 180.4 | COc1cc(CC(=O)Nc2c(-c3ccncc3)c(-c3ccc(F)cc3)nn2C)cc(OC)c1OC [Example 54, 3-(4-Fluorophenyl)-1-methyl-4-(4-pyridyl)-5-(3,4,5-trimethoxyphenylacetylamino)pyrazole] |
| 215.9 to 217.8 | Cn1nc(-c2ccc(F)cc2)c(-c2ccncc2)c1NC(=O)Cc1ccccc1Cl [Example 56, 5-(2-Chlorophenylacetylamino)-3-(4-fluorophenyl)-1-methyl-4-(4-pyridyl)pyrazole] |
| 223.8 to 227.6 | Cn1nc(-c2ccc(F)cc2)c(-c2ccncc2)c1NC(=O)Cc1ccccc1Br [Example 57, 5-(2-Bromophenylacetylamino)-3-(4-fluorophenyl)-1-methyl-4-(4-pyridyl)pyrazole] |
| 78.5 to 80.2 | Cn1nc(-c2ccc(F)cc2)c(-c2ccncc2)c1NC(=O)Cc1cccc(Br)c1 [Example 58, 5-(3-Bromophenylacetylamino)-3-(4-fluorophenyl)-1-methyl-4-(4-pyridyl)pyrazole] |
| 199.8 to 202.1 | Cn1nc(-c2ccc(F)cc2)c(-c2ccncc2)c1NC(=O)Cc1ccc(Br)cc1 [Example 59, 5-(4-Bromophenylacetylamino)-3-(4-fluorophenyl)-1-methyl-4-(4-pyridyl)pyrazole] |
| 196.8 to 198.1 | Cn1nc(-c2ccc(F)cc2)c(-c2ccncc2)c1NC(=O)Cc1ccccc1F [Example 60, 3-(4-Fluorophenyl)-5-(2-fluorophenylacetylamino)-1-methyl-4-(4-pyridyl)pyrazole] |
| 196.9 to 199.1 | Cn1nc(-c2ccc(F)cc2)c(-c2ccncc2)c1NC(=O)Cc1cccc(F)c1 [Example 61, 3-(4-Fluorophenyl)-5-(3-fluorophenylacetylamino)-1-methyl-4-(4-pyridyl)pyrazole] |
| 217.3 to 219.7 | Cn1nc(-c2ccc(F)cc2)c(-c2ccncc2)c1NC(=O)Cc1ccc(F)cc1 [Example 62, 3-(4-Fluorophenyl)-5-(4-fluorophenylacetylamino)-1-methyl-4-(4-pyridyl)pyrazole] |
| 135 to 141.2 | COc1cccc(CC(=O)Nc2c(-c3ccncc3)c(-c3ccc(F)cc3)nn2C)c1 [Example 63, 3-(4-Fluorophenyl)-5-(3-methoxyphenylacetylamino)-1-methyl-4-(4-pyridyl)pyrazole] |
| 172.3 to 176 | COc1ccc(CC(=O)Nc2c(-c3ccncc3)c(-c3ccc(F)cc3)nn2C)cc1 [Example 64, 3-(4-Fluorophenyl)-5-(4-methoxyphenylacetylamino)-1-methyl-4-(4-pyridyl)pyrazole] |
| 240.9 to 242.4 | Cn1nc(-c2ccc(F)cc2)c(-c2ccncc2)c1NC(=O)Cc1ccccc1[N+](=O)[O-] [Example 65, 3-(4-Fluorophenyl)-1-methyl-5-(2-nitrophenylacetylamino)-4-(4-pyridyl)pyrazole] |

| melting point [°C] | SMILES |
| --- | --- |
| 197.6 to 200.5 | Cc1ccccc1CC(=O)Nc1c(-c2ccncc2)c(-c2ccc(F)cc2)nn1C [Example 67, 3-(4-Fluorophenyl)-1-methyl-5-(2-methylphenylacetylamino)-4-(4-pyridyl)pyrazole] |
| 242.7 to 244.5 | Cn1nc(-c2ccc(F)cc2)c(-c2ccncc2)c1NC(=O)Cc1ccccc1C(F)(F)F [Example 68, 3-(4-Fluorophenyl)-1-methyl-4-(4-pyridyl)-5-(2-trifluoromethylphenylacetylamino)pyrazole] |
| 206.8 to 209.2 | COc1ccccc1CC(=O)Nc1c(-c2ccncc2)c(-c2ccc(F)cc2)nn1C [Example 69, 3-(4-Fluorophenyl)-5-(2-methoxyphenylacetylamino)-1-methyl-4-(4-pyridyl)pyrazole] |
| 147.8 to 150.1 | Cn1nc(-c2ccc(F)cc2)c(-c2ccncc2)c1NC(=O)Cc1ccc(OCc2ccccc2)cc1 [Example 70, 5-(4-Benzyloxyphenylacetylamino)-3-(4-fluorophenyl)-1-methyl-4-(4-pyridyl)pyrazole] |
| 182.5 to 184.7 | CSc1ccc(CC(=O)Nc2c(-c3ccncc3)c(-c3ccc(F)cc3)nn2C)cc1 [Example 71, 3-(4-Fluorophenyl)-1-methyl-5-(4-methylthiophenylacetyl-amino)-4-(4-pyridyl)pyrazole] |
| 193.4 to 195.8 | Cn1nc(-c2ccc(F)cc2)c(-c2ccncc2)c1NC(=O)Cc1cccc(C(F)(F)F)c1 [Example 72, 3-(4-Fluorophenyl)-1-methyl-4-(4-pyridyl)-5-(3-trifluoromethylphenylacetylamino)pyrazole] |
| 210 to 214.9 | CC(C(=O)Nc1c(-c2ccncc2)c(-c2ccc(F)cc2)nn1C)c1ccccc1 (centres unmarked) [Example 73, 3-(4-Fluorophenyl)-1-methyl-5-(2-phenylpropionylamino)-4-(4-pyridyl)pyrazole] |
| 92.1 to 96.1 | Cn1nc(-c2ccc(F)cc2)c(-c2ccncc2)c1NC(=O)C(F)c1ccccc1 (stereo not drawn) [Example 74, 3-(4-Fluorophenyl)-5-(α-fluorophenylacetylamino)-1-methyl-4-(4-pyridyl)pyrazole] |
| 148.9 to 149.4 | Cn1nc(-c2ccc(F)cc2)c(-c2ccncc2)c1NC(=O)Cc1ccccn1 [Example 76, 3-(4-Fluorophenyl)-1-methyl-4-(4-pyridyl)-5-(2-pyridylacetylamino)pyrazole] |
| 220 to 220.9 | Cn1nc(-c2ccc(F)cc2)c(-c2ccncc2)c1NC(=O)Cc1cccnc1 [Example 77, 3-(4-Fluorophenyl)-1-methyl-4-(4-pyridyl)-5-(3-pyridylacetylamino)pyrazole] |
| 141.3 to 143.4 | Cn1nc(-c2ccc(F)cc2)c(-c2ccncc2)c1NC(=O)Cc1ccncc1 [Example 78, 3-(4-Fluorophenyl)-1-methyl-4-(4-pyridyl)-5-(4-pyridylacetylamino)pyrazole] |
| 165.1 to 168.1 | Cn1cccc1CC(=O)Nc1c(-c2ccncc2)c(-c2ccc(F)cc2)nn1C [Example 79, 3-(4-Fluorophenyl)-1-methyl-5-(1-methylpyrrol-2-ylacetylamino)-4-(4-pyridyl)pyrazole] |
| 151.9 to 154.6 | Cn1nc(-c2ccc(F)cc2)c(-c2ccncc2)c1NC(=O)Cc1ccsc1 [Example 80, 3-(4-Fluorophenyl)-1-methyl-4-(4-pyridyl)-5-(3-thienylacetylamino)pyrazole] |
| 66.9 to 68.8 | Cn1nc(-c2ccc(F)cc2)c(-c2ccncc2)c1NC(=O)Cc1c[nH]c2ccccc12 [Example 82, 3-(4-Fluorophenyl)-5-(indol-3-ylacetylamino)-1-methyl-4-(4-pyridyl)pyrazole] |
| 129.2 to 130.6 | Cn1nc(-c2ccc(F)cc2)c(-c2ccncc2)c1NC(=O)Cc1c(F)ccc([N+](=O)[O-])c1Cl [Example 83, 5-(2-chloro-6-fluoro-3-nitrophenylacetylamino)-3-(4-fluorophenyl)-1-methyl-4-(4-pyridyl)pyrazole] |
| 190 to 191.3 | C[C@H](NC(=O)OCc1ccccc1)C(=O)Nc1n[nH]c(-c2ccc(F)cc2)c1-c1ccncc1 [Example 84, 3-(N′-carbobenzoxy-L-alanylamino)-5-(4-fluorophenyl)-4-(4-pyridyl)pyrazole] |
| 231.1 | CC(C)[C@H](NC(=O)OCc1ccccc1)C(=O)Nc1n[nH]c(-c2ccc(F)cc2)c1-c1ccncc1 [Example 85, 3-(N′-carbobenzoxy-L-valylamino)-5-(4-fluorophenyl)-4-(4-pyridyl)pyrazole] |

| SMILES | melting point [°C] |
| --- | --- |
| C[C@H](NC(=O)OC(C)(C)C)C(=O)Nc1n[nH]c(-c2ccc(F)cc2)c1-c1ccncc1 [Example 86, 3-(N′-Carbo-t-butoxy-L-alanylamino)-5-(4-fluorophenyl)-4-(4-pyridyl)pyrazole] | 223 to 224.7 |
| CC(C)[C@H](NC(=O)OC(C)(C)C)C(=O)Nc1n[nH]c(-c2ccc(F)cc2)c1-c1ccncc1 [Example 87, 3-(N′-Carbo-t-butoxy-L-valylamino)-5-(4-fluorophenyl)-4-(4-pyridyl)pyrazole] | 217.1 to 217.6 |
| CC(C)(C)OC(=O)N1CCC[C@H]1C(=O)Nc1n[nH]c(-c2ccc(F)cc2)c1-c1ccncc1 [Example 88, 3-(N′-Carbo-t-butoxy-L-prolylamino)-5-(4-fluorophenyl)-4-(4-pyridyl)pyrazole] | 124.6 to 125.7 |
